Source: patent US6784186B1 (priority 1998, dated 2004)
Values joined by “and” are separate entries in the source; they are usually repeats but may differ in a detail not shown here. Equal values may be shown once. Read-outs that look alike come from different tables or passages of the source.

Tests used:
μ opiate receptor = test system: μ opiate receptor; design: species or system guinea-pig
[1] = Formalin-induced hind paw licking test (mouse analgesia model); type: in vivo, ICR derived male mice; conditions: for % Reduction in Hind Paw Licking time: given one hour before subplantar formalin, licking time recorded during the following 20 to 30 minute period
[2] = PQ-induced writhing test (mouse analgesia model); type: in vivo, ICR derived male mice; conditions: for % Reduction in Writhes: given 30 minutes before PQ (2 mg/kg), writhes 5 to 10 minutes after PQ
[3] = in vivo

N=C(N)N1CC[C@]23c4c5ccc(O)c4O[C@H]2[C@@H](O)C=CC3[C@H]1C5 (stereo partly drawn) [KRS-2-19, (5α,6α)-7,8-didehydro-4,5-epoxy-17-N-(2-carboxamidino)-morphinan-3,6, -diol]
agonist character (full / partial) (μ opiate receptor): only partial morphine agonist activity

COc1ccc2c3c1O[C@H]1[C@@H](O)C=CC4[C@@H](C2)N(CCC(=N)N)CC[C@@]341 (stereo partly drawn) [KRS-2-63, 5α,6α-7,8-didehydro-4,5-epoxy-3-methoxy-17-N-[(2-aminoiminomethyl)ethyl]morphinan]
agonist character (full / partial) (μ opiate receptor): partial agonist activity

N=C(N)CCN1CC[C@]23c4c5ccc(O)c4O[C@H]2[C@@H](O)C=CC3[C@H]1C5 (stereo partly drawn) [KRS-41, (5α,6α)-7,8-didehydro-4,5-epoxy-17-N-[(2-aminoiminomethyl)ethyl]-morphinan-3,6-diol]
opiate activity in stimulated ileum compared to standard (μ opiate receptor): excellent activity compared to morphine
% Reduction in Hind Paw Licking time ([1]; 10 mg/kg): 12%
% Reduction in Hind Paw Licking time ([1]; 30 mg/kg): 75%
analgesic activity at multiple of the morphine concentration ([1]; formalin test, relative to morphine): 3 times the morphine concentration
% Reduction in Writhes ([2]; 3 mg/kg): 18%
% Reduction in Writhes ([2]; 15 mg/kg): 93%
analgesic activity at multiple of the morphine concentration ([2]; PQ writhing test, relative to morphine): 5 times the morphine concentration
Corneal reflex ([3]; 30 mg/kg): 4.9 ± 0.1
Grip strength ([3]; 30 mg/kg): 5.1 ± 0.4
Positional Passivity ([3]; 30 mg/kg): 4.7 ± 0.3
Respiratory rate ([3]; 30 mg/kg): 5.1 ± 0.2
Tail elevation ([3]; 30 mg/kg): 2.0 ± 0.4

CN1CC[C@]23c4c5ccc(O)c4O[C@H]2[C@@H](O)C=C[C@H]3[C@H]1C5 [Morphine, reference compound]
Corneal reflex ([3]; 10 mg/kg): 2.9 ± 0.2
Grip strength ([3]; 10 mg/kg): 3.7 ± 0.3
Positional Passivity ([3]; 10 mg/kg): 8.7 ± 0.4
Respiratory rate ([3]; 10 mg/kg): 4.1 ± 0.3
Tail elevation ([3]; 10 mg/kg): 7.0 ± 0.7

CN1CC[C@]23c4c5ccc(O)c4O[C@H]2[C@@H](O)C=C[C@H]3[C@H]1C5.Cl [Morphine HCl, reference compound]
% Reduction in Hind Paw Licking time ([1]; 10 mg/kg): 100%
% Reduction in Writhes ([2]; 3 mg/kg, HCl): 87% and 73%
